Reference: patent EP0391462A1, “Synergistic compositions containing ketanserin” (JANSSEN PHARMACEUTICA N.V., priority 1989, dated 1990)

Tests used:
[1] = test system: patients with moderate, uncomplicated hypertension; conditions: difference between treated and untreated patients, mean ± standard error; end of treatment period, 1-2 hours after last dose, seated; ketanserin 40 mg b.i.d., captopril 50 mg b.i.d.
Description: The effect of a combination of the compound ketanserin (I) and an ACE inhibitor, captopril, on the lowering of blood pressure was investigated in a double-blind randomized cross-over study according to a latin square design.
Adult (≧18 years) patients with moderate, uncomplicated hypertension (105 mmHg ≦ DBP ≦ 115 mmHg at the end of a 1 month placebo wash-out period) were randomly assigned to: - placebo (1 tab q.i.d.); - placebo (1 tab b.i.d.) + ketanserin (1 tab 40 mg b.i.d.); - placebo (1 tab b.i.d.) + captopril (1 tab 50 mg b.i.d.); - ketanserin (1 tab 40 mg b.i.d.) + captopril (1 tab 50 mg b.i.d.).
At the end of each treatment period (1-2 hours after the last dose), blood pressure (by a mercury sphygmomanometer) and heart rate (by the palpatory method over a 30˝ period) of patients seated for 10′ were recorded by the same investigator during 3 measurements at 2′ intervals.

[2] = test system: patients with mild to moderate, uncomplicated, essential hypertension; assay type: in vivo; conditions: absolute value, mean ± standard error; end of 3 month monotherapy (ketanserin 2 weeks 20 mg b.i.d. then 10 weeks 40 mg b.i.d., 9 pts; enalapril 12 weeks 10 mg b.i.d., 7 pts)
Description: The effect of a combination of the compound ketanserin (I) and enalapril on the lowering of blood pressure was investigated in a randomized double-blind parallel group study. Elderly (≧ 50 years) patients with mild to moderate, uncomplicated, essential hypertension (95 mm Hg ≦ DBP ≦ 105 mm Hg at the end of a 3 month period on double blind monotherapy) received ketanserin (1 tab 40 mg b.i.d.) + enalapril (1 tab 10 mg b.i.d.). […] Bloodpressure (SBP, DBP) and heart rate (HR) (mean values ± standard error) are in mm Hg and b.p.m.

Row | Structure (SMILES) | difference of diastolic blood pressure (DBP) [1] [mmHg] | difference of systolic blood pressure (SBP) [1] [mmHg] | DBP, End Monotherapy Phase [2] [mm Hg] | SBP, End Monotherapy Phase [2] [mm Hg]
1 | C[C@H](CS)C(=O)N1CCC[C@H]1C(=O)O [Captopril, captopril] | -8.75±1.3 | -8.75±1.96 |  | 
2 | CCOC(=O)[C@H](CCc1ccccc1)N[C@@H](C)C(=O)N1CCC[C@H]1C(=O)O [Enalapril, enalapril] |  |  | 101.42±10.07 | 160.0±5.77
3 | O=C(c1ccc(F)cc1)C1CCN(CCn2c(=O)[nH]c3ccccc3c2=O)CC1 [Ketanserin, 3-[2-[4-(4-fluorobenzoyl)-1-piperidinyl]ethyl]-2,4(1H,3H)-quinazolinedione] | -7.92±1.3 | -8.33±2.33 | 102.22±5.65 | 148.88±13.64
